Tests used:
human Edg-1 (S1P1) = molecular target: T1, human Edg-1 (S1P1) (Homo sapiens, UniProt P21453); experiment: S1P1 binding inhibition test (membrane, [33P]-S1P); details: for inhibition at 10 µM: compound 10 μM, [33P]-S1P 0.1 nM, human Edg-1 (S1P1) HEK-293 membrane fraction, read-out: Binding test (membrane) % inhibition (10 μM); for IC50: membrane system binding test, various concentrations
T1 construct: expressed in transfected cells; host or cells: HEK-293
Procedure: The membrane fraction was obtained by treating the cells with a solubilizing buffer (1 mM Tris/HCl, pH 7.2) for 10 minutes on ice, centrifuging at 1000×g for 5 minutes to remove insoluble fractions, and then centrifuging at 40000×g for 30 minutes at 4° C. The resulting membrane fraction was dissolved in a binding buffer (20 mM Tris-HCl, pH 7.4, 100 mM NaCl, 15 mM NaF, 2 mM deoxypyridoxine, 4 mg/mL fatty acid-free BSA), and then [^33P]-S1P (manufactured by ARC, final concentration 0.1 nM) and a DMSO solution (final concentration of the compound 10^−5 M, final concentration of DMSO 0.1%) of the test compound were added. Thereafter, the mixture was stirred and then treated for one hour at 30° C. Using a harvester, the membrane fraction was harvested onto unifilter-96 GF/C filter (manufactured by Perkin Elmer), washing was carried out four times with the binding buffer, and the filter was dried. Twenty five μL Microscint 0 (manufactured by Perkin Elmer) was added, and radioactivity was measured using Top Count NXT (manufactured by Packard) to calculate the amount (A) of [^33P]-S1P bound to the membrane fraction at the time when the compound was added.
The same procedure was carried out in the absence of the test compound, and the amount (B) of [^33P]-S1P bound was calculated. Further, the same procedure was carried out in the absence of the test compound by use of HEK-293 cells to which no Edg-1 (S1P1) gene was introduced, and the background amount (C) of [^33P]-S1P bound was calculated.
Inhibition rate (%)=[1−(A−C)/(B−C)]×100.
Moreover, the concentration required for a test compound to produce 50% inhibition of the binding caused in the absence of the test compound was also calculated (IC50). The above membrane system binding test was performed in the presence of a test compound at various concentrations to calculate the inhibition rate of Edg-1(S1P1) binding at each concentration according to the above equation, followed by calculating an IC50 value for each compound with data analysis software, Origin (Lightstone Corp., Japan).

T1 sequence (P21453 whole entry): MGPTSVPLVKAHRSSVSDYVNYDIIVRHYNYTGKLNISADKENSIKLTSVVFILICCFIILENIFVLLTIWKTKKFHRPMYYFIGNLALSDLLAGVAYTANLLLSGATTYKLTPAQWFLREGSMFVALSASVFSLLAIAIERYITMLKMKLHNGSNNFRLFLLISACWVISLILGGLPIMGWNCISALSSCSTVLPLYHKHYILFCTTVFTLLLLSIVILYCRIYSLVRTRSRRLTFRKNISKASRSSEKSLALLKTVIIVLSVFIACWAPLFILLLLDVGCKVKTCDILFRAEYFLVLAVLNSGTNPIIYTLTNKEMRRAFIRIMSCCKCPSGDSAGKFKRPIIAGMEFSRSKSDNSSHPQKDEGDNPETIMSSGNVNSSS

SMILES | inhibition at 10 µM (human Edg-1 (S1P1)) [%] | melting point [°C] | IC50 (human Edg-1 (S1P1)) [nM] | Kd (human Edg-1 (S1P1); human Edg-1 (S1P1) gene transferred HEK-293 membrane fraction) [nM]
CCn1c(C(C)NS(=O)(=O)c2ccc(Cl)c(Cl)c2)cnc1OC1CCC1 (centres unmarked) [Compound 231] | 97.4 | 162 to 163 |  | 
CCn1c(C(C)NS(=O)(=O)c2ccc(Cl)c(Cl)c2)cnc1Oc1cccc(NC(C)=O)c1 (centres unmarked) [Compound 236] | 96.8 | 213.5 to 215.5 | ≤ 70 | 
CCn1c(C(C)NS(=O)(=O)c2ccc3c(Cl)cccc3c2)cnc1Oc1cccc(N2CCN(C)CC2)c1 (centres unmarked) [Compound 185] | 100 | 205.5 to 206 | 3.7 | 
CCn1c(Oc2ccc(F)cc2)nc(-c2ccccc2)c1C(C)NS(=O)(=O)c1ccc(Cl)c(Cl)c1 (centres unmarked) [Compound 227] |  | 216.5 to 217.5 |  | 
CCn1c(C(C)NS(=O)(=O)c2ccc3c(Cl)cccc3c2)nc(Cl)c1Oc1ccc(C)cc1 (centres unmarked) [Compound 182] |  | 137.5 to 138.5 |  | 
CCn1c(C(NS(=O)(=O)c2ccc(Cl)c(Cl)c2)c2ccccc2)cnc1Oc1ccc(F)cc1 (centres unmarked) [Compound 201] |  | 157.5 to 158 |  | 
CCCCCCC(NS(=O)(=O)c1ccc(Cl)c(Cl)c1)c1cnc(Oc2ccc(F)cc2)n1CC (centres unmarked) [Compound 220] | 68.3 | 79 to 80 |  | 
CCn1c(C(C)NS(=O)(=O)c2ccc(Cl)c(Cl)c2)cnc1Oc1cccc(N(C)C)c1 (centres unmarked) [Compound 198] | 97.8 | 171 to 172 | 10.3 | 
CCn1c(Oc2ccc(F)cc2)nc(Br)c1C(C)NS(=O)(=O)c1ccc(Cl)c(Cl)c1 (centres unmarked) [Compound 232] | 92.3 | 128.5 to 129.5 |  | 
CCn1c(C(C)NS(=O)(=O)c2ccc(C(C)=O)cc2)cnc1Oc1ccc(C)cc1 (centres unmarked) [Compound 3] | 96.7 |  |  | 
CCC(NS(=O)(=O)c1ccc(Cl)c(Cl)c1)c1cnc(Oc2ccc(F)cc2)n1CC (centres unmarked) [Compound 191, 3,4-Dichloro-N-{1-[3-ethyl-2-(4-fluorophenoxy)-3H-imidazol-4-yl]-propyl}-benzenesulfonamide] | 100 |  |  | 
CCn1c(C(C)NS(=O)(=O)c2cc3ccccc3s2)cnc1Oc1ccc(C)cc1 (centres unmarked) [Compound 177] | 77.7 |  |  | 
CCCCCCCCCCCCC/C=C/[C@@H](O)[C@@H](N)COP(=O)(O)O [[^33P]-S1P, Sphingosine-1-phosphate] |  |  |  | 0.15
CCn1c(C(C)NS(=O)(=O)c2ccc(C(F)(F)F)cc2Cl)cnc1Oc1ccc(C)cc1 (centres unmarked) [Compound 158] | 57 |  |  | 
CCn1c(C(C)NS(=O)(=O)c2c(C)c(C)cc(C)c2C)cnc1Oc1ccc(C)cc1 (centres unmarked) [Compound 58] | 66.4 |  |  | 
CCn1c(C(C)NS(=O)(=O)c2ccc(Br)cc2F)cnc1Oc1ccc(C)cc1 (centres unmarked) [Compound 95] | 80.1 |  |  | 
CCn1c(C(C)NS(=O)(=O)c2ccc(Br)c(C(F)(F)F)c2)cnc1Oc1ccc(C)cc1 (centres unmarked) [Compound 172] | 75.9 |  |  | 
CCn1c(C(C)NS(=O)(=O)c2cc(Cl)c(Cl)cc2Cl)cnc1Oc1ccc(C)cc1 (centres unmarked) [Compound 33] | 115 |  |  | 
CCn1c(C(C)NS(=O)(=O)c2ccc(Cl)c3nonc23)cnc1Oc1ccc(C)cc1 (centres unmarked) [Compound 12] | 68.1 |  |  | 
CCn1c(C(C)NS(=O)(=O)CCc2cccc3ccccc23)cnc1Oc1ccc(C)cc1 (centres unmarked) [Compound 29] | 52.5 |  |  | 
CCn1c(C(C)NS(=O)(=O)c2c(C)c(C)c(C)c(C)c2C)cnc1Oc1ccc(C)cc1 (centres unmarked) [Compound 71] | 72 |  |  | 
CCn1c(C(C)NS(=O)(=O)c2cccc(Br)c2)cnc1Oc1ccc(C)cc1 (centres unmarked) [Compound 9] | 113 |  |  | 
CC[C@@H](NS(=O)(=O)c1ccc(Cl)c(Cl)c1)c1cnc(Oc2ccc(F)cc2)n1CC [Compound 253, (R)-(+)-3,4-Dichloro-N-{1-[3-ethyl-2-(4-fluorophenoxy)-3H-imidazol-4-yl]-propyl}-benzenesulfonamide] | 100 |  | 27.5 | 
CCn1c(C(C)NS(=O)(=O)c2ccc(Cl)c(Cl)c2)cnc1OC (centres unmarked) [Compound 240] |  | 199 to 200 |  | 
CCn1c(C(C)NS(=O)(=O)c2cccc(Cl)c2C)cnc1Oc1ccc(C)cc1 (centres unmarked) [Compound 64] | 96.7 |  |  | 

Source: patent US7994204B2, “Binding inhibitor of sphingosine-1-phosphate” (Taisho Pharmaceutical Co., Ltd, priority 2006, dated 2011)
